In US8486456B2, “Itraconazole compositions with improved bioavailability” (Abbott GmbH & Co., KG, priority 2005, dated 2013):

Columns and labels:
[1] = Thermal stability of itraconazole; assay type: physicochemical; conditions: temperatures up to 300° C.
[2] = aqueous media; cited from earlier work

thermal stability [1]: thermally very stable
SMILES: CCC(C)n1ncn(-c2ccc(N3CCN(c4ccc(OCC5COC(Cn6cncn6)(c6ccc(Cl)cc6Cl)O5)cc4)CC3)cc2)c1=O (single isomer, unassigned; (+)) [itraconazole, (+)-cis-4-[4-[4-[4-[[2-(2,4-dichlorophenyl)-2-(1H-1,2,4-triazol-1-yl-methyl)-1,3-dioxolan-4-yl]methoxy]phenyl]-1-piperazinyl]phenyl]-2,4-dihydro-2-(1-methylpropyl)-3H-1,2,4-triazol-3-one]
solubility [2]: practically insoluble
